The results in this text go back to patent US20260306502A1, “MITOCHONDRIAL UNCOUPLERS FOR TREATMENT OF METABOLIC DISEASES AND CANCER” (Mito Biopharma, LLC, priority 2022, published 2026).

The structures appear in SMILES notation.

The first experiment relates to C2C12 cells. Description: Mitochondrial uncoupling activity by oxygen consumption rate (OCR) assay, Seahorse, in presence of oligomycin. The format is cell-based, mouse. Particulars: Mus musculus, C2C12; in the presence of oligomycin 2.5 μM; read-out: COCR-min: minimal concentration increasing OCR in the presence of oligomycin. How it is done:
By definition, mitochondrial uncoupling is the decoupling of mitochondrial electron transport chain activity (mitochondrial oxidation) from ATP synthesis by mitochondrial ATP synthase. Technically, mitochondrial uncoupling activity is defined by the ability of a chemical compound to induce oxygen consumption of cells or isolated mitochondria in the presence of a mitochondrial ATP synthase inhibitor such as oligomycin. Accordingly, mitochondrial uncoupling activity was determined by oxygen consumption rate assay with a Seahorse XF96 or a Seahorse XF24 instrument following the vendor's instruction, using mouse myoblast C2C12 cells grown in a medium containing 10% fetal bovine serum. OCR was measured stepwise under the following conditions: first under normal growth conditions; then. OCR was measured after oligomycin was added to reach a final concentration of 2.5 μM); then OCR was measured after the compound was further added at varying concentrations. Finally, rotenone and antimycin A were added to confirm that the measurement was mitochondrial oxygen consumption (rotenone and […] mitochondrial electron transport chain inhibitors).
COCR-min the minimal concentration required for each compound to induce OCR in the presence of oligomycin, of disclosed compounds, was also determined by varying the final concentration of the compound added to the Seahorse OCR analysis experiment as described above (FIG. 2, varying testing compound concentration). Table 8 summarizes the mitochondrial uncoupling activity of disclosed compounds, as represented by COCR-min.
Take `CO/N=C/c1cc(Cl)cc(C(=O)Nc2nc3ccc(C(F)(F)F)cc3s2)c1O` [Compound 39, (E)-5-chloro-2-hydroxy-3-((methoxyimino)methyl)-N-(6-(trifluoromethyl)benzo[d]thiazol-2-yl)benzamide]: the minimal effective concentration is > 10 µM.

Turning to `COCCOCc1cc(Cl)cc(C(=O)Nc2nc3ccc(C(F)F)cc3s2)c1O` [Compound 42, 5-chloro-N-(6-(difluoromethyl)benzo[d]thiazol-2-yl)-2-hydroxy-3-((2-methoxyethoxy)methyl)benzamide], the minimal effective concentration is 5 to 10 µM.

As to `COCCOCc1cc(Cl)cc(C(=O)Nc2ccc(C(F)(F)F)cn2)c1O` [Compound 45, 5-chloro-2-hydroxy-3-((2-methoxyethoxy)methyl)-N-(5-(trifluoromethyl)pyridin-2-yl)benzamide], the minimal effective concentration lay in the range of 5 to 10 µM.

On to `COCCOCc1cc(I)cc(C(=O)Nc2nc3ccc(C(F)(F)F)cc3s2)c1O` [Compound 46, 2-hydroxy-5-iodo-3-((2-methoxyethoxy)methyl)-N-(6-(trifluoromethyl)benzo[d]thiazol-2-yl)benzamide], for which the minimal effective concentration is < 5 µM.

`COCCOCc1cc(Cl)cc(C(=O)Nc2ccc(C(F)(F)F)nc2Cl)c1O` [Compound 47, 5-chloro-N-(2-chloro-6-(trifluoromethyl)pyridin-3-yl)-2-hydroxy-3-((2-methoxyethoxy)methyl)benzamide]: the minimal effective concentration is < 5 µM.

As to `O=C(Nc1ncc(C(F)(F)F)s1)c1cc(Cl)cc(CN2CCOCC2)c1O` [Compound 51, 5-chloro-2-hydroxy-3-(morpholinomethyl)-N-(5-(trifluoromethyl)thiazol-2-yl)benzamide], the minimal effective concentration was < 5 µM.

As for `O=C(Nc1ccc(C(F)(F)F)nc1)c1cc(Cl)cc(CN2CCOCC2)c1O` [Compound 53, 5-chloro-2-hydroxy-3-(morpholinomethyl)-N-(6-(trifluoromethyl)pyridin-3-yl)benzamide], the minimal effective concentration was < 5 µM.

As for `N#CC1CCN(Cc2cc(Cl)cc(C(=O)Nc3ccc(C(F)(F)F)nc3)c2O)C1` (centres unmarked) [Compound 55, 5-chloro-3-((3-cyanopyrrolidin-1-yl)methyl)-2-hydroxy-N-(6-(trifluoromethyl)pyridin-3-yl)benzamide], the minimal effective concentration was < 5 µM.

`O=C(Nc1nc2ccc(C(F)(F)F)cc2s1)c1cc(Cl)cc(CN2CCCC2C(F)(F)F)c1O` (centres unmarked) [Compound 56, 5-chloro-2-hydroxy-N-(6-(trifluoromethyl)benzo[d]thiazol-2-yl)-3-((2-(trifluoromethyl)pyrrolidin-1-yl)methyl)benzamide]: the minimal effective concentration is < 5 µM.

`COc1cc(C(F)(F)F)cc2sc(NC(=O)c3cc(Cl)cc(C)c3O)nc12` [Compound 67, 5-chloro-2-hydroxy-N-(4-methoxy-6-(trifluoromethyl)benzo[d]thiazol-2-yl)-3-methylbenzamide]: the minimal effective concentration is < 5 µM.

For `COCCOCc1cc(C(F)(F)F)cc2sc(NC(=O)c3cc(Cl)cc(CN(CCOC)CCOC)c3O)nc12` [Compound 70, 3-((bis(2-methoxyethyl)amino)methyl)-5-chloro-2-hydroxy-N-(4-((2-methoxyethoxy)methyl)-6-(trifluoromethyl)benzo[d]thiazol-2-yl)benzamide], the minimal effective concentration was < 5 µM.

Take `Cc1cc(Cl)cc(C(=O)Nc2nc3c(COCCN4CCN(C)CC4)cc(C(F)(F)F)cc3s2)c1O` [Compound 75, 5-chloro-2-hydroxy-3-methyl-N-(4-((2-(4-methylpiperazin-1-yl)ethoxy)methyl)-6-(trifluoromethyl)benzo[d]thiazol-2-yl)benzamide]: the minimal effective concentration was < 5 µM.

With `C[C@@H]1CN(Cc2cc(Cl)cc(C(=O)Nc3nc4c(COCCN5CCN(C)CC5)cc(C(F)(F)F)cc4s3)c2O)C[C@H](C)O1` [Compound 76, 5-chloro-3-((cis-2,6-dimethylmorpholino)methyl)-2-hydroxy-N-(4-((2-(4-methylpiperazin-1-yl)ethoxy)methyl)-6-(trifluoromethyl)benzo[d]thiazol-2-yl)benzamide], the minimal effective concentration is < 5 µM.

In the case of `Cc1cc(Cl)cc(C(=O)Nc2nc3c(COCc4ccc(Cl)cc4)cc(C(F)(F)F)cc3s2)c1O` [Compound 82, 5-chloro-N-(4-(((4-chlorobenzyl)oxy)methyl)-6-(trifluoromethyl)benzo[d]thiazol-2-yl)-2-hydroxy-3-methylbenzamide], the minimal effective concentration was < 5 µM.

As for `Cc1cc(Cl)cc(C(=O)Nc2nc3c(COCc4ccccc4)cc(C(F)(F)F)cc3s2)c1O` [Compound 84, N-(4-((benzyloxy)methyl)-6-(trifluoromethyl)benzo[d]thiazol-2-yl)-5-chloro-2-hydroxy-3-methylbenzamide], the minimal effective concentration is < 5 µM.

Consider `Cc1cc(Cl)cc(C(=O)Nc2nc3c(COCCO)cc(C(F)(F)F)cc3s2)c1O` [Compound 88, 5-chloro-2-hydroxy-N-(4-((2-hydroxyethoxy)methyl)-6-(trifluoromethyl)benzo[d]thiazol-2-yl)-3-methylbenzamide], for which the minimal effective concentration was 5 to 10 µM.

As to `COc1ccc(COCc2cc(C(F)(F)F)cc3sc(NC(=O)c4cc(Cl)cc(C)c4O)nc23)cc1` [Compound 89, 5-chloro-2-hydroxy-N-(4-(((4-methoxybenzyl)oxy)methyl)-6-(trifluoromethyl)benzo[d]thiazol-2-yl)-3-methylbenzamide], the minimal effective concentration was < 5 µM.

Consider `Cc1cc(Cl)cc(C(=O)Nc2nc3c(COCCNS(C)(=O)=O)cc(C(F)(F)F)cc3s2)c1O` [Compound 91, 5-chloro-2-hydroxy-3-methyl-N-(4-((2-(methylsulfonamido)ethoxy)methyl)-6-(trifluoromethyl)benzo[d]thiazol-2-yl)benzamide], for which the minimal effective concentration is < 5 µM.

In the case of `C[C@@H]1CN(Cc2cc(Cl)cc(C(=O)Nc3nc4c(COCCNS(C)(=O)=O)cc(C(F)(F)F)cc4s3)c2O)C[C@H](C)O1` [Compound 92, 5-chloro-3-((cis-2,6-dimethylmorpholino)methyl)-2-hydroxy-N-(4-((2-(methylsulfonamido)ethoxy)methyl)-6-(trifluoromethyl)benzo[d]thiazol-2-yl)benzamide], the minimal effective concentration was < 5 µM.

Take `COCCN(CCOC)Cc1cc(Cl)cc(C(=O)Nc2nc3c(COCCNS(C)(=O)=O)cc(C(F)(F)F)cc3s2)c1O` [Compound 93, 3-((bis(2-methoxyethyl)amino)methyl)-5-chloro-2-hydroxy-N-(4-((2-(methylsulfonamido)ethoxy)methyl)-6-(trifluoromethyl)benzo[d]thiazol-2-yl)benzamide]: the minimal effective concentration is < 5 µM.

For the molecule `O=C(Nc1nc2ccc(C(F)(F)F)cc2s1)c1cc(Cl)cc(CN2CCCC(F)C2)c1O` (centres unmarked) [Example 58, 5-chloro-3-((3-fluoropiperidin-1-yl)methyl)-2-hydroxy-N-(6-(trifluoromethyl)benzo[d]thiazol-2-yl)benzamide], the minimal effective concentration is < 5 µM.

In the case of `O=C(Nc1nc2ccc(C(F)(F)F)cc2s1)c1cc(Cl)cc(CN2CCCC(F)(F)C2)c1O` [Example 59, 5-chloro-3-((3,3-difluoropiperidin-1-yl)methyl)-2-hydroxy-N-(6-(trifluoromethyl)benzo[d]thiazol-2-yl)benzamide], the minimal effective concentration is < 5 µM.

As to `O=C(Nc1nc2ccc(C(F)(F)F)cc2s1)c1cc(Cl)cc(CN2CCC(F)CC2)c1O` [Example 60, 5-chloro-3-((4-fluoropiperidin-1-yl)methyl)-2-hydroxy-N-(6-(trifluoromethyl)benzo[d]thiazol-2-yl)benzamide], the minimal effective concentration is < 5 µM.

Turning to `O=C(Nc1nc2ccc(C(F)(F)F)cc2s1)c1cc(Cl)cc(CN2CCCC(C(F)(F)F)C2)c1O` (centres unmarked) [Example 61, 5-chloro-2-hydroxy-N-(6-(trifluoromethyl)benzo[d]thiazol-2-yl)-3-((3-(trifluoromethyl)piperidin-1-yl)methyl)benzamide], the minimal effective concentration is < 5 µM.

In the case of `O=C(Nc1nc2ccc(C(F)(F)F)cc2s1)c1cc(Cl)cc(CN2CCC(F)(F)CC2)c1O` [Example 62, 5-chloro-3-((4,4-difluoropiperidin-1-yl)methyl)-2-hydroxy-N-(6-(trifluoromethyl)benzo[d]thiazol-2-yl)benzamide], the minimal effective concentration was < 5 µM.

Turning to `C[C@@H]1CN(Cc2cc(Cl)cc(C(=O)Nc3nc4c(CNS(C)(=O)=O)cc(C(F)(F)F)cc4s3)c2O)C[C@H](C)O1` [Example 72, 5-chloro-3-((cis-2,6-dimethylmorpholino)methyl)-2-hydroxy-N-(4-(methylsulfonamidomethyl)-6-(trifluoromethyl)benzo[d]thiazol-2-yl)benzamide], the minimal effective concentration was < 5 µM.

With `COCCN(CCOC)Cc1cc(Cl)cc(C(=O)Nc2nc3c(CNS(C)(=O)=O)cc(C(F)(F)F)cc3s2)c1O` [Example 74, 3-((bis(2-methoxyethyl)amino)methyl)-5-chloro-2-hydroxy-N-(4-(methylsulfonamidomethyl)-6-(trifluoromethyl)benzo[d]thiazol-2-yl)benzamide], the minimal effective concentration is < 5 µM.

The same experiment, now with this note: Mus musculus, C2C12; minimal concentration leading to OCR increase; read-out: Activity (Cmin-OCR).
In the case of `O=C(Nc1nc2ccc(C(F)(F)F)cc2s1)c1cc(Cl)cc(CO)c1O` [Compound 49 in U.S. Pat. No. 10,227,315, reference compound], the minimal effective concentration is 25 µM.

The same experiment, now with this note: in words, compared to similar compounds of the present invention.
On to `O=C(Nc1nc2ccc(C(F)(F)F)cc2s1)c1cc(Cl)cc(CO)c1O` [Compound 49 in U.S. Pat. No. 10,227,315, reference compound], for which the mitochondrial uncoupling activity result is “low”.
